Among the data in ChEMBL document CHEMBL2073850, “Human organic anion transporters and human organic cation transporters mediate renal transport of prostaglandins” (J Pharmacol Exp Ther, 2002) are Activity and activity values, retold here.

Holding throughout (assay type): functional, cell-based
Parameters in all cases: scale not given: the % may be the effect or the level left

Series [1] concerns the target T1, Solute carrier family 22 member 1 (Homo sapiens, UniProt O15245).
T1 sequence (O15245 whole entry): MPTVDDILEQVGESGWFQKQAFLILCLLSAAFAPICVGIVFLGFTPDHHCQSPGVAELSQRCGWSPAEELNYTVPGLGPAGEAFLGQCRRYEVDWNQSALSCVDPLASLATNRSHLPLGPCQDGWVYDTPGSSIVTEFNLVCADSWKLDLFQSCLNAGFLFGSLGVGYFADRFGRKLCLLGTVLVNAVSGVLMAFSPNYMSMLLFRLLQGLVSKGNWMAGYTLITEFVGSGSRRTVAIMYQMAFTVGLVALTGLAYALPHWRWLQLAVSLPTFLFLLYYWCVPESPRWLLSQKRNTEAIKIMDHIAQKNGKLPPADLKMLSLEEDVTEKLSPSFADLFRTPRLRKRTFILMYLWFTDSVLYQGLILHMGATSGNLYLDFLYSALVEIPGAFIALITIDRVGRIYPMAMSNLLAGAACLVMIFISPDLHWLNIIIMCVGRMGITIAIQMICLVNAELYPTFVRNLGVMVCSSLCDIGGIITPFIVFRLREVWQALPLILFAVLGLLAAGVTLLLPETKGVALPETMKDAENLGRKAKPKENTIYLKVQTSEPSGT
As to the kind of experiment: TP_TRANSPORTER: inhibition of TEA uptake (TEA: 5 uM, PGF2alpha: 1000 uM) in OCT1-expressing S2 cells. Particulars: mouse, s2, 1000 µM.

Series [2] has as its target T2, OAT3 (Organic anion transporter 3) (Homo sapiens, UniProt Q8TCC7).
T2 sequence (Q8TCC7 whole entry): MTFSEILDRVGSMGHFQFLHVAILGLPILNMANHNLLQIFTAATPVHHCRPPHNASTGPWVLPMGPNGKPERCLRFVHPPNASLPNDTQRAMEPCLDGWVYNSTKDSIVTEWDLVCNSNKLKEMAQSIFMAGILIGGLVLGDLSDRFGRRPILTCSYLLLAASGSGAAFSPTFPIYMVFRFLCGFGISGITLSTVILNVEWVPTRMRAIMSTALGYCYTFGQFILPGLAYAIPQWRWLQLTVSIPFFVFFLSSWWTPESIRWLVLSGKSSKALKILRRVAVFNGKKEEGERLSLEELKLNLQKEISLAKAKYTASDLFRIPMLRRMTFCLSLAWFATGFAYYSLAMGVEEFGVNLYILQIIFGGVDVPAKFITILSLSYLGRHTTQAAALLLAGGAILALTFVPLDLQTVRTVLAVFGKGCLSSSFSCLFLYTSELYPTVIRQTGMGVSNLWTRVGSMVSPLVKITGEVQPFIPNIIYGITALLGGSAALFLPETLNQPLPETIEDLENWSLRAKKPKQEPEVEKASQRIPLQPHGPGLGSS
As to the kind of experiment: TP_TRANSPORTER: inhibition of ES uptake (ES: 0.05 uM, PGF2alpha: 30 uM) in OAT3-expressing S2 cells. Particulars: probe ES, read-out: Activity.

The target of series [3] is T3, OAT4 (Solute carrier family 22 member 11) (Homo sapiens, UniProt Q9NSA0).
T3 sequence (Q9NSA0 whole entry): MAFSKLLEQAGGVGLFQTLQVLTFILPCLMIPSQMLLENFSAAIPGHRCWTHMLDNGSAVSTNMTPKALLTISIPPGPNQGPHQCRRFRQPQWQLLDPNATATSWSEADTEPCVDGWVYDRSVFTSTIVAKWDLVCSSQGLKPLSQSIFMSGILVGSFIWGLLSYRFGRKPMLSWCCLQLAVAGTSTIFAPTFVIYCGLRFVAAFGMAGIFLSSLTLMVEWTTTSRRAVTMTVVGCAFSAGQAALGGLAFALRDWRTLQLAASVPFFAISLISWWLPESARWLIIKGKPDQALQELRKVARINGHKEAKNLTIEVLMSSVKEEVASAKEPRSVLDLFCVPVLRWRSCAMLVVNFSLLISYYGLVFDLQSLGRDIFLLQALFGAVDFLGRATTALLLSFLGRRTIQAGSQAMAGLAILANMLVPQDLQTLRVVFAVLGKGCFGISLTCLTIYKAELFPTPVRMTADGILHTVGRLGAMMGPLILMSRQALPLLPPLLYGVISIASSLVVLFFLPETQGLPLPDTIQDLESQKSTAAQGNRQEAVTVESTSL
As to the kind of experiment: TP_TRANSPORTER: inhibition of ES uptake (ES: 0.05 uM, PGF2alpha: 30 uM) in OAT4-expressing S2 cells. Particulars: mouse, probe ES, read-out: Activity.

Series [4] deals with T4, OCT2 (Solute carrier family 22 member 2) (Homo sapiens, UniProt O15244).
T4 sequence (O15244 whole entry): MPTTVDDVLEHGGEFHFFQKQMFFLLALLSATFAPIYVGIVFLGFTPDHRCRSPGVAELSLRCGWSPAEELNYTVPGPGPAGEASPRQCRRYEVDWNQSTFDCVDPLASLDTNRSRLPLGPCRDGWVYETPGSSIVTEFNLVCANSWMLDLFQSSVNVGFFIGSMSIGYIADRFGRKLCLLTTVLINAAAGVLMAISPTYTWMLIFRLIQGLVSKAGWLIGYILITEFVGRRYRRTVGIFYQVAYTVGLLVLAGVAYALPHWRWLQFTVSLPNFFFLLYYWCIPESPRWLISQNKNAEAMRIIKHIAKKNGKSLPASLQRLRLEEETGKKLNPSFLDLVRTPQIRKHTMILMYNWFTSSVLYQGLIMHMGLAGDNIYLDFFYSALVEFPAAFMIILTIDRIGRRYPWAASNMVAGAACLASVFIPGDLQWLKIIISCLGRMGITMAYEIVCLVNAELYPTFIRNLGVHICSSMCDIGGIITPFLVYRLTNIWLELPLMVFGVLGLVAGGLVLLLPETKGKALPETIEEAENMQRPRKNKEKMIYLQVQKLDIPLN
As to the kind of experiment: TP_TRANSPORTER: inhibition of TEA uptake (TEA: 5 uM, PGF2alpha: 1000 uM) in OCT2-expressing S2 cells. Particulars: mouse, probe TEA, read-out: Activity.

Series [5] has as its target T5, OAT1 (Solute carrier family 22 member 6) (Homo sapiens, UniProt Q4U2R8).
T5 sequence (Q4U2R8 whole entry): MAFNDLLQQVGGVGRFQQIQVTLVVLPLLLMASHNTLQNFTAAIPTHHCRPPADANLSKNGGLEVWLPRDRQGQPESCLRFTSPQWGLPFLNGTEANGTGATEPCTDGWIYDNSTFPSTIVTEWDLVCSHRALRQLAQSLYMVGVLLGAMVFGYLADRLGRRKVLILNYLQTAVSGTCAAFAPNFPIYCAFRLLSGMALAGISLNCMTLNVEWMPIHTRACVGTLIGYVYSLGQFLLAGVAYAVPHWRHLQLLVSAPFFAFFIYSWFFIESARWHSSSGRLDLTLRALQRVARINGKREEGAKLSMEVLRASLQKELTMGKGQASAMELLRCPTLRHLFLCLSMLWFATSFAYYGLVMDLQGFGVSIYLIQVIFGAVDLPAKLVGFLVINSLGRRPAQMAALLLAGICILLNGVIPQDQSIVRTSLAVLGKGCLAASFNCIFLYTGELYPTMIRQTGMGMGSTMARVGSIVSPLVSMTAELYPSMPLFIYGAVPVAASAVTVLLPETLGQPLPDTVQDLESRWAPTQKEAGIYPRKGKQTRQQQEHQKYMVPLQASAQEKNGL
As to the kind of experiment: TP_TRANSPORTER: inhibition of PAH uptake (PAH: 5 uM, PGF2alpha: 1000 uM) in OAT1-expressing S2 cells. Conditions: mouse, probe PAH, read-out: Activity.

Series [6] addresses T6, OAT2 (Solute carrier family 22 member 7) (Homo sapiens, UniProt Q9Y694).
T6 sequence (Q9Y694 whole entry): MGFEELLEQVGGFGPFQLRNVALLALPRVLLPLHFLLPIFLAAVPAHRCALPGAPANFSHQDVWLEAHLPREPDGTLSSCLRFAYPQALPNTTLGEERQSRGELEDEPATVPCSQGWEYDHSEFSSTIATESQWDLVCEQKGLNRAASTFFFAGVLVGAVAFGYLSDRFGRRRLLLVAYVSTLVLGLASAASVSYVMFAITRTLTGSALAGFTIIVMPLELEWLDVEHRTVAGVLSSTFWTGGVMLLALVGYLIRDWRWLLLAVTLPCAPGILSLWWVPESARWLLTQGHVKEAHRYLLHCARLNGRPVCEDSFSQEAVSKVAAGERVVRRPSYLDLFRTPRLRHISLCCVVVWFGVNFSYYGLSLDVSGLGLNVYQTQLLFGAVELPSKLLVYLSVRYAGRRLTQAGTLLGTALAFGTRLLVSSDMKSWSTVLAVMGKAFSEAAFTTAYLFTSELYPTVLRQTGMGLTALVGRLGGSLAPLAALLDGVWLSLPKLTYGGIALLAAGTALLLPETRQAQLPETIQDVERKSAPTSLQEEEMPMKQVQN
As to the kind of experiment: TP_TRANSPORTER: inhibition of PGF2alpha uptake (PGF2alpha: 0.05 uM, PGE2: 30 uM) in OAT2-expressing S2 cells. Conditions: mouse, probe PGF2alpha, read-out: Activity.

For series [7], the target named is T3, OAT4 (Solute carrier family 22 member 11). As to the kind of experiment: TP_TRANSPORTER: inhibition of ES uptake (ES: 0.05 uM, PGE2: 30 uM) in OAT4-expressing S2 cells. Conditions: probe ES, read-out: Activity.
Series [8] deals with T7, Organic anion transporter 3 (Homo sapiens, UniProt Q8TCC7).
T7 sequence (Q8TCC7 whole entry): T2 sequence (Q8TCC7 whole entry)
As to the kind of experiment: TP_TRANSPORTER: inhibition of ES uptake (ES: 0.05 uM, PGE2: 30 uM) in OAT3-expressing S2 cells. Particulars: s2, 30 µM.

The target in series [9] is T8, OCT1 (Solute carrier family 22 member 1) (Homo sapiens, UniProt O15245).
T8 sequence (O15245 whole entry): T1 sequence (O15245 whole entry)
As to the kind of experiment: TP_TRANSPORTER: inhibition of TEA uptake (TEA: 5 uM, PGE2: 1000 uM) in OCT1-expressing S2 cells. Particulars: probe TEA, read-out: Activity.

The target of series [10] is T4, OCT2 (Solute carrier family 22 member 2). As to the kind of experiment: TP_TRANSPORTER: inhibition of TEA uptake (TEA: 5 uM, PGE2: 1000 uM) in OCT2-expressing S2 cells. Conditions: mouse, probe TEA, read-out: Activity.

Take `CCCCC[C@H](O)/C=C/[C@@H]1[C@@H](C/C=C\CCCC(=O)O)[C@@H](O)C[C@H]1O` [DINOPROST]: in series [1], the Activity is 68.9%. Also, the activity at 30 µM in [2] was determined as 26.8%; in series [3], 40.8%. Also, the activity at 1000 µM in series [4] was 70.7%; in series [5] it was 17.7%.
In the case of `CCCCC[C@H](O)/C=C/[C@H]1[C@H](O)CC(=O)[C@@H]1C/C=C\CCCC(=O)O` [DINOPROSTONE], the activity at 30 µM in [6] came to 21.2%; in series [7], 57%. The compound further registered an Activity in [8] of 21.8%. Moreover, the results for the activity at 1000 µM in [9] and in series [10] were 31.4% and 75.6%, respectively.
